Measurements reported in patent US20020028938A1, “Prostaglandin endoperoxide H synthase biosynthesis inhibitors” (priority 1997, published 2002).

Assays:
[1] = target: T1, recombinant human Cox-1 (r-hu Cox1) (Homo sapiens, UniProt P23219); test: Recombinant human PGHS-1 enzyme assay (RHUCX1); type: biochemical; settings: read-out: RHUCX1 % Inh. at Dose
T1 construct: made in house; host or cells: baculovirus/Sf9 insect cells (microsomes)
How it was run: (§1)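 PGE2 by EIA (optical density) → % inhibition vs control-group mean → IC50 from linear regression.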

[2] = target: T2, recombinant human Cox-2 (r-hu Cox-2) (Homo sapiens, UniProt P35354); test: Recombinant human PGHS-2 enzyme assay (RHUCX2); type: biochemical; settings: for inhibition at 0.1 µM / inhibition at 10 µM / inhibition at 0.01 µM / inhibition at 1 µM: read-out: RHUCX2 % Inh. at Dose; for IC50: read-out: RHUCX2 IC50 (parenthetical value)
T2 construct: made in house; host or cells: baculovirus/Sf9 insect cells (microsomes)
T2 sequence (P35354 18-604): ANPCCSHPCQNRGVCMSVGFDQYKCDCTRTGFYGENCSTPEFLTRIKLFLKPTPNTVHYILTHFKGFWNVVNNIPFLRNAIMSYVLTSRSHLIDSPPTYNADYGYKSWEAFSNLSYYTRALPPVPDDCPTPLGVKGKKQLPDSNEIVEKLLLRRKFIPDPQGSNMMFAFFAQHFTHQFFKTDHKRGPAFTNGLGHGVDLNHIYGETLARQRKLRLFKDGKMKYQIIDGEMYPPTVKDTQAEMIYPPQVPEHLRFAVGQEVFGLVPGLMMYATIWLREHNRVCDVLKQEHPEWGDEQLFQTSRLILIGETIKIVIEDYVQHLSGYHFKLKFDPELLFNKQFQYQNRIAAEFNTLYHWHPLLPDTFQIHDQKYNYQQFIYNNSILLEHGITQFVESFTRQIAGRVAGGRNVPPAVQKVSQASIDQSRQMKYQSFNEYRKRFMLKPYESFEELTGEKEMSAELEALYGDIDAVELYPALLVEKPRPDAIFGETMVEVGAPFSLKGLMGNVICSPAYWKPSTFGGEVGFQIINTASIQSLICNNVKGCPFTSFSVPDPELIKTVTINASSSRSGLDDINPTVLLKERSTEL
How it was run: as §1

T1 sequence (P23219 24-599): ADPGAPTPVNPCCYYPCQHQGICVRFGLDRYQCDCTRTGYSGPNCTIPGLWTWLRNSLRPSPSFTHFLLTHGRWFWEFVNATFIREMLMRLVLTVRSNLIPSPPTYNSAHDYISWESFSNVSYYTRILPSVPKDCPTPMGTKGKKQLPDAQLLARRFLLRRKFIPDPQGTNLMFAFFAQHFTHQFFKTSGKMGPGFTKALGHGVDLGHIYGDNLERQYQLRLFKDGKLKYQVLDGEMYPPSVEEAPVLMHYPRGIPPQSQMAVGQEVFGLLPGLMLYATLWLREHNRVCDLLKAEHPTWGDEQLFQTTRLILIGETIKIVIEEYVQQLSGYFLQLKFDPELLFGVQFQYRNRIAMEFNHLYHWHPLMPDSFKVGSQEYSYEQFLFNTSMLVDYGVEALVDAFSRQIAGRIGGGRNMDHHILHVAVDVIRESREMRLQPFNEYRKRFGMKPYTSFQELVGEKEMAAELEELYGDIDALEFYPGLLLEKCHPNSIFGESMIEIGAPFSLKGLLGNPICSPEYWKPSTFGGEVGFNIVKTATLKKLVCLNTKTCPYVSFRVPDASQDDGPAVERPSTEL

| Structure (SMILES) | inhibition at 10 µM [1] [%] | inhibition at 100 µM [1] [%] | inhibition at 0.1 µM [2] [%] | melting point [°C] | inhibition at 10 µM [2] [%] | IC50 [2] [nM] | inhibition at 0.01 µM [2] [%] | inhibition at 1 µM [2] [%] | inhibition at 1 µM [1] [%] |
| --- | --- | --- | --- | --- | --- | --- | --- | --- | --- |
| NS(=O)(=O)c1ccc(-c2cnn(Cc3ccc(F)cc3)c(=O)c2-c2ccc(F)cc2)cc1 [Example 150, 2-(4-Fluorobenzyl)-4-(4-fluorophenyl)-5-[4-(aminosulfonyl)phenyl]-3(2H)-pyridazinone] | 39 | 56 | 100 | 237 to 239 | – | – | – | – | – |
| CCCCC(CC)COc1c(-c2ccc(S(C)(=O)=O)cc2)cnn(-c2ccc(F)cc2)c1=O (centres unmarked) [Example 178, 2-(4-Fluorophenyl)-4-(2-ethyl-1-hexyloxy)-5-[4-(methylsulfonyl)phenyl]-3(2H)-pyridazinone] | – | 6 | – | 120 to 122 | 34 | – | – | – | – |
| CS(=O)(=O)c1ccc(-c2cnn(-c3ccc(F)cc3)c(=O)c2Cc2ccccc2)cc1 [Example 230, 2-(4-Fluorophenyl)-4-benzyl-5-[4-(methylsulfonyl)phenyl]-3(2H)-pyridazinone] | – | 4 | – | 180 to 182 | – | 215 | – | – | – |
| CS(=O)(=O)c1ccc(-c2cnn(-c3ccc(F)c(F)c3)c(=O)c2C2CCCCC2)cc1 [Example 232, 2-(3,4-Difluorophenyl)-4-cyclohexyl-5-[4-(methylsulfonyl)phenyl]-3(2H)-pyrdazinone] | – | 23 | – | 80 to 83 | – | 24 | – | – | – |
| CS(=O)(=O)c1ccc(-c2cnn(CC(F)(F)F)c(=O)c2C2CCCCC2)cc1 [Example 240, 2-(2,2,2-Trifluoroethyl)-4-cyclohexyl-5-[4-(methylsulfonyl)phenyl]-3(2H)-pyridazinone] | – | 14 | – | 215 to 218 | – | 297 | – | – | – |
| NS(=O)(=O)c1ccc(-c2cnn(-c3ccc(F)cc3)c(=O)c2Cc2cccc(F)c2)cc1 [Example 253, 2-(4-Fluorophenyl)-4-(3-fluorobenzyl)-5-[4-(aminosulfonyl)phenyl]-3(2H)-pyridazinone] | 29 | 77 | – | 199 to 202 | – | 272 | – | – | – |
| CS(=O)(=O)c1ccc(-c2cnn(CC(F)(F)F)c(=O)c2Oc2cccnc2)cc1 [Example 265, 2-(2,2,2-Trifluoroethyl)-4-(3-pyridyloxy)-5-[4-(methylsulfonyl)phenyl]-3(2H)-pyridazinone] | – | 8 | 33 | 191 to 193 | 53 | – | – | 48 | – |
| CS(=O)(=O)c1ccc(-c2cnn(-c3ccc(F)cc3)c(=O)c2N2CCCCC2)cc1 [Example 355, 2-(4-Fluorophenyl)-4-(1-piperidinyl)-5-[4-(methylsulfonyl)phenyl]-3(2H)-pyridazinone] | – | 0 | 46 | 80 to 100 | 79 | – | – | 66 | – |
| CS(=O)(=O)c1ccc(-c2cnn(-c3cccc(Cl)c3)c(=O)c2Cc2ccc(F)cc2)cc1 [Example 369, 2-(3-Chlorophenyl)-4-(4-fluorobenzyl)-5-[4-(methylsulfonyl)phenyl]-3(2H)-pyridazinone] | – | 0 | 48 | 183 to 185 | – | – | – | 70 | – |
| CS(=O)(=O)c1ccc(-c2cnn(-c3cccc(Cl)c3)c(=O)c2CCc2ccccc2)cc1 [Example 372, 2-(3-Chlorophenyl)-4-(phenethyl)-5-[4-(methylsulfonyl)phenyl]-3(2H)-pyridazinone] | – | 0 | 59 | 142 to 145 | 94 | – | – | 88 | – |
| CS(=O)(=O)c1ccc(-c2cnn(-c3cccc(Cl)c3)c(=O)c2OCc2ccccc2)cc1 [Example 374, 2-(3-Chlorophenyl)-4-(benzyloxy)-5-[4-(methylsulfonyl)phenyl]-3(2H)-pyridazinone] | – | 2 | – | 110 to 113 | – | 20 | – | – | – |
| CS(=O)(=O)c1ccc(-c2cnn(-c3cccc(Cl)c3)c(=O)c2Oc2cccc(F)c2)cc1 [Example 411, 2-(3-Chlorophenyl)-4-(3-fluorophenoxy)-5-[4-(methylsulfonyl)phenyl]-3(2H)-pyridazinone] | 96 | – | – | 178 to 180 | – | 9 | – | – | 81 |
| CC(C)CCCOc1c(-c2ccc(S(C)(=O)=O)cc2)cnn(-c2cccc(Cl)c2)c1=O [Example 413] | – | 0 | – | 139 to 140 | – | 110 | – | – | – |
| CC(C)CCCc1c(-c2ccc(S(C)(=O)=O)cc2)cnn(-c2ccc(F)cc2)c1=O [Example 420, 2-(4-Fluorophenyl)-4-(4-methylpentyl)-5-[4-(methylsulfonyl)phenyl]-3(2H)-pyridazinone] | – | 29 | – | 112 to 115 | – | 323 | – | – | – |
| CC(C)=CCOc1c(-c2ccc(S(C)(=O)=O)cc2)cnn(-c2cccc(Cl)c2)c1=O [Example 423, 2-(3-Chlorophenyl)-4-(3-methyl-2-butenoxy)-5-[4-(methylsulfonyl)phenyl]-3(2H)-pyridazinone] | – | 0 | 68 | 113 to 115 | – | – | 36 | 87 | – |

Second part, the molecule after the results:

| inhibition at 10 µM [1] [%] | inhibition at 100 µM [1] [%] | inhibition at 0.1 µM [2] [%] | melting point [°C] | inhibition at 10 µM [2] [%] | IC50 [2] [nM] | inhibition at 0.01 µM [2] [%] | inhibition at 1 µM [2] [%] | inhibition at 1 µM [1] [%] | Structure (SMILES) |
| --- | --- | --- | --- | --- | --- | --- | --- | --- | --- |
| – | 18 | – | 289 to 294 | – | 526 | – | – | – | CS(=O)(=O)c1ccc(-c2cnn(-c3cc(Cl)cc(Cl)c3)c(=O)c2-c2ccc(F)cc2)cc1 [Example 188, 2-(3,5-Dichlorophenyl)-4-(4-fluorophenyl)-5-[4-(methylsulfonyl)phenyl]-3-(2H)-pyridazinone] |
| – | 0 | – | 190 to 192 | – | 328 | – | – | – | Cc1ccc(-c2c(-c3ccc(S(C)(=O)=O)cc3)cnn(-c3ccc(F)c(F)c3)c2=O)cc1 [Example 234] |
| – | 22 | – | 166 to 168 | – | 210 | – | – | – | Cc1cc(-c2c(-c3ccc(S(C)(=O)=O)cc3)cnn(-c3ccc(F)c(F)c3)c2=O)ccc1F [Example 235, 2-(3,4-Difluorophenyl)-4-(4-fluoro-3-methylphenyl)-5-[4-(methylsulfonyl)phenyl]-3(2H)-pyridazinone] |
| – | 6 | 68 | 101 to 103 | – | – | 43 | 98 | – | CS(=O)(=O)c1ccc(-c2cnn(-c3ccc(F)c(Cl)c3)c(=O)c2Cc2cccc(F)c2)cc1 [Example 249, 2-(3-Chloro-4-fluorophenyl)-4-(3-fluorobenzyl)-5-[4-(methylsulfonyl)phenyl]-3(2H)-pyridazinone] |
| – | 7 | 48 | 211 to 213 | – | – | – | 84 | – | CS(=O)(=O)c1ccc(-c2cnn(-c3ccc(F)c(F)c3)c(=O)c2C#Cc2ccccc2)cc1 [Example 254, 2-(3,4-Difluorophenyl)-4-(phenylethynyl)-5-[4-(methylsulfonyl)phenyl]-3(2H)-pyridazinone] |
| – | 7 | 52 | 192 to 194 | – | – | 47 | 71 | – | CS(=O)(=O)c1ccc(-c2cnn(-c3ccc(F)c(F)c3)c(=O)c2Oc2ccc(Cl)cc2)cc1 [Example 281, 2-(3,4-Difluorophenyl)-4-(4-chlorophenoxy)-5-[4-(methylsulfonyl)phenyl]-3(2H)-pyridazinone] |
| – | 8 | – | 204 to 206 | – | 166 | – | – | – | Cc1ccc(-c2c(-c3ccc(S(C)(=O)=O)cc3)cnn(-c3ccc(F)c(F)c3)c2=O)cc1F [Example 371, 2-(3,4-Difluorophenyl)-4-(3-fluoro-4-methylphenyl)-5-[4-(methylsulfonyl)phenyl]-3(2H)-pyridazinone] |
| – | 58 | 63 | 198 to 200 | – | – | 58 | 83 | 47 | Cc1ccc(-c2c(-c3ccc(S(N)(=O)=O)cc3)cnn(-c3ccc(F)c(F)c3)c2=O)cc1F [Example 386, 2-(3,4-Difluorophenyl)-4-(3-fluoro-4-methylphenyl)-5-[4-(aminosulfonyl)phenyl]-3(2H)-pyridazinone] |
| – | – | – | 243 to 245 | – | 221 | – | – | 89 | Cc1cc(-c2c(-c3ccc(S(N)(=O)=O)cc3)cnn(-c3ccc(F)c(F)c3)c2=O)ccc1F [Example 402, 2-(3,4-Difluorophenyl)-4-(4-fluoro-3-methylphenyl)-5-[4-(aminosulfonyl)phenyl]-3(2H)-pyridazinone] |
